From patent publication US20230233569A1 (Revolution Medicines, Inc., priority 2020, published 2023)
Values joined by “and” are separate entries in the source; they are usually repeats but may differ in a detail not shown here. Equal entries are not always repeated. Where two headings read alike, the source gives them in different places.

Experiments:
KRAS G13C = KRAS G13C (Homo sapiens, UniProt P01116+P62937, G13C); experiment: Disruption of BRAF RBD interaction with Ras (FRET / MOA assay, with Cyclophilin A); format: biochemical
Sequence of KRAS G13C (P01116 1-169 isoform P01116-2 G13C): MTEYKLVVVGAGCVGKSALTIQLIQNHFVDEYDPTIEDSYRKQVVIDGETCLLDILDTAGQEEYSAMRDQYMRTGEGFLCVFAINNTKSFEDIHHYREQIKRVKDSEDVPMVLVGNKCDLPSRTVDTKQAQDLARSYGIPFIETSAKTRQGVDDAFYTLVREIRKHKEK
Sequence of KRAS G13C (P62937 whole entry): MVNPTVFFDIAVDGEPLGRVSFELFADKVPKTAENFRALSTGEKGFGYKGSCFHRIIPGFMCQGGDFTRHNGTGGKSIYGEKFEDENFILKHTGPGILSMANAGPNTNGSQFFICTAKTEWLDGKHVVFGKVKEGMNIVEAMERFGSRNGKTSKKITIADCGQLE
Source text: (§1) This protocol may also be executed substituting other Ras proteins or nucleotides.
(§2) The purpose of this biochemical assay was to measure the ability of test compounds to facilitate ternary complex formation between a nucleotide-loaded K-Ras isoform and Cyclophilin A; the resulting ternary complex disrupts binding to a BRAF^RBD construct, inhibiting K-Ras signaling through a RAF effector. Data is reported as IC50 values.
(§3) Compound was present in plate wells as a 10-point 3-fold dilution series starting at a final concentration of 30 μM. After incubation at 25° C. for 3 hours, a mixture of Anti-His Eu-W1024 and anti-GST allophycocyanin was then added to assay sample wells at final concentrations of 10 nM and 50 nM, respectively, and the reaction incubated for an additional 1.5 hours. […] Compounds that facilitate disruption of a K-Ras:RAF complex were identified as those eliciting a decrease in the TR-FRET ratio relative to DMSO control wells.
(§4) The purpose of this biochemical assay was to measure the ability of test compounds to facilitate ternary complex formation between a nucleotide-loaded K-Ras isoform and Cyclophilin A; the resulting ternary complex disrupts binding to a BRAF^RBDD construct, inhibiting K-Ras signaling through a RAF effector. Data is reported as IC50 values.

KRAS G13D = KRAS G13D (Homo sapiens, UniProt P01116+P62937, G13D); experiment: as above; format: biochemical
Sequence of KRAS G13D (P01116 1-169 isoform P01116-2 G13D limits assumed): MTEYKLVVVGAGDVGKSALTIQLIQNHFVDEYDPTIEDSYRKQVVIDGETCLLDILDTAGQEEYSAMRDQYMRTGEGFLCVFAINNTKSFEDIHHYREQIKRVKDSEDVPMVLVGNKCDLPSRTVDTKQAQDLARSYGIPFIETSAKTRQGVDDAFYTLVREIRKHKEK
Sequence of KRAS G13D (P62937 whole entry): as the sequence (P62937 whole entry) above
Source text: as §1, §2, §3, §4

KRAS G12V = KRAS G12V (Homo sapiens, UniProt P01116+P62937, G12V); experiment: as above; format: biochemical
Sequence of KRAS G12V (P01116 1-169 isoform P01116-2 G12V limits assumed): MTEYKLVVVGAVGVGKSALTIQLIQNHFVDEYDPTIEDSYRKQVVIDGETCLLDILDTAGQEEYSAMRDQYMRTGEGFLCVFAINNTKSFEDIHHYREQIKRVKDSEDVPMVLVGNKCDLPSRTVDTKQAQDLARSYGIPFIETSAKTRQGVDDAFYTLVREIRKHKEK
Sequence of KRAS G12V (P62937 whole entry): as the sequence (P62937 whole entry) above
Source text: as §1, §2, §3, §4

NRAS G12C = NRAS G12C (Homo sapiens, UniProt P01111+P62937, G12C); experiment: as above; format: biochemical
Sequence of NRAS G12C (P01111 whole entry G12C): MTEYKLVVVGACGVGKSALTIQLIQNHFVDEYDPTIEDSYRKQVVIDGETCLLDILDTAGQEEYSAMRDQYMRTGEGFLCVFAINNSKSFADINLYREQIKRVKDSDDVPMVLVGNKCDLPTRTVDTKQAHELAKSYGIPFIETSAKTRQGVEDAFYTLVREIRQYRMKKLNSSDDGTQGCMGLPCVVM
Sequence of NRAS G12C (P62937 whole entry): as the sequence (P62937 whole entry) above
Source text: as §1, §2, §3, §4

KRAS G12S = KRAS G12S (Homo sapiens, UniProt P01116+P62937, G12S); experiment: as above; format: biochemical
Sequence of KRAS G12S (P01116 1-169 isoform P01116-2 G12S limits assumed): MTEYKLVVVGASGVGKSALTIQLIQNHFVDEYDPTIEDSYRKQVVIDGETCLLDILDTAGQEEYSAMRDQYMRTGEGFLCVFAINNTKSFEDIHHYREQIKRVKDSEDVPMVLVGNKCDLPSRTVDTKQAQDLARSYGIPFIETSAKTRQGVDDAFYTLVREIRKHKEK
Sequence of KRAS G12S (P62937 whole entry): as the sequence (P62937 whole entry) above
Source text: as §1, §2, §3, §4

KRAS WT = KRAS WT (Homo sapiens, UniProt P01116+P62937); experiment: as above; format: biochemical
Sequence of KRAS WT (P01116 1-169 isoform P01116-2 limits assumed): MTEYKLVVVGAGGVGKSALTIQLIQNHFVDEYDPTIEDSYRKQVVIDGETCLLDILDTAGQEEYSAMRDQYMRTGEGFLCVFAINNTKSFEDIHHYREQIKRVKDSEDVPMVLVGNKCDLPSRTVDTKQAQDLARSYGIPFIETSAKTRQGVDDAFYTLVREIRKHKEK
Sequence of KRAS WT (P62937 whole entry): as the sequence (P62937 whole entry) above
Source text: as §1, §2, §3, §4

KRAS G12D = KRAS G12D (Homo sapiens, UniProt P01116+P62937, G12D); experiment: as above; format: biochemical
Sequence of KRAS G12D (P01116 1-169 isoform P01116-2 G12D limits assumed): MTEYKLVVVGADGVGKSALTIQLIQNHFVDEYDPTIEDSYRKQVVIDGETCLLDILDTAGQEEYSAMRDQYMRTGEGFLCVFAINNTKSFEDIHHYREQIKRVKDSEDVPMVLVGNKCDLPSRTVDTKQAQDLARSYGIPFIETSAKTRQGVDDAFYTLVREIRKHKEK
Sequence of KRAS G12D (P62937 whole entry): as the sequence (P62937 whole entry) above
Source text: as §1, §2, §3, §4

KRAS G12C = KRAS G12C (Homo sapiens, UniProt P01116+P62937, G12C); experiment: as above; format: biochemical
Sequence of KRAS G12C (P01116 1-169 isoform P01116-2 G12C): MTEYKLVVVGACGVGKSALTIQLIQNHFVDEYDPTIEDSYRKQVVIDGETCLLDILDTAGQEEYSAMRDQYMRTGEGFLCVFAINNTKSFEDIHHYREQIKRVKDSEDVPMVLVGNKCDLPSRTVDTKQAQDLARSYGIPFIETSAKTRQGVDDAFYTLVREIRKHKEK
Sequence of KRAS G12C (P62937 whole entry): as the sequence (P62937 whole entry) above
Source text: as §1, §2, §3, §4

NCI-H358 (K-Ras G12C) = experiment: CellTiter-Glo cell viability assay, 5-day treatment; format: cell-based; settings: Homo sapiens
Protocol: Protocol: CellTiter-Glo® Cell Viability Assay
Note—The following protocol describes a procedure for monitoring cell viability of K-Ras mutant cancer cell lines in response to a compound of the invention. Other RAS isoforms may be employed, though the number of cells to be seeded will vary based on cell line used.
Test compounds (132.5 nL) were directly dispensed into the assay plates containing cells. […] On day 5, assay plates and their contents were equilibrated to room temperature for approximately 30 minutes. […] Luminescence was measured using the PerkinElmer Enspire. Data were normalized by the following: (Sample signal/Avg. DMSO)*100. The data were fit using a four-parameter logistic fit.
Test compounds (132.5 nl) were directly dispensed into the assay plates containing cells. […] On day 5, assay plates and their contents were equilibrated to room temperature for approximately 30 minutes. […] Luminescence was measured using the PerkinElmer Enspire. Data were normalized by the following: (Sample signal/Avg. DMSO)*100. The data were fit using a four-parameter logistic fit.

[1] = read-out: KRAS G13C FRET data, IC50
[2] = KRAS G13D, read-out: KRAS G13D FRET data IC50
[3] = KRAS G12V, read-out: KRAS G12V FRET data IC50
[4] = NRAS G12C, read-out: NRAS G12C FRET data IC50
[5] = read-out: KRAS G12S FRET data, IC50
[6] = KRAS WT, read-out: KRAS WT FRET data IC50
[7] = read-out: KRAS G12D FRET data, IC50
[8] = read-out: KRAS G12C FRET data, IC50
[9] = NCI-H358, 120 h, 5-day treatment, read-out: H358 Cell Viability assay data (K-Ras G12C, IC50)
[10] = KRAS G13C, read-out: KRAS G13C FRET data IC50
[11] = KRAS G12C, read-out: KRAS G12C FRET data IC50
[12] = NCI-H358, H358, K-Ras G12C, read-out: Additional H358 Cell Viability assay data (K-Ras G12C, IC50)

Row | Compound | IC50 (KRAS G13C; [1]) | IC50 (KRAS G13D; [2]) | IC50 (KRAS G12V; [3]) | IC50 (NRAS G12C; [4]) | IC50 (KRAS G12S; [5]) | IC50 (KRAS WT; [6]) | IC50 (KRAS G12D; [7]) | IC50 (KRAS G12C; [8]) | IC50 (NCI-H358 (K-Ras G12C); [9]) | further results
1 | CCn1c(-c2cccnc2COC)c2c3cc(ccc31)-c1cc(O)cc(c1)C[C@H](NC(=O)[C@H](C(C)C)N(C)C(=O)[C@H]1CCN(C(=O)CN)C1)C(=O)N1CCC[C@H](N1)C(=O)OCC(C)(C)C2 [Example A12] | 100 to 1000 nM and 1000 to 10000 nM | 100 to 1000 nM and 1000 to 10000 nM | 100 to 1000 nM and 1000 to 10000 nM | 1000 to 10000 nM | 100 to 1000 nM and 1000 to 10000 nM | 100 to 1000 nM and 1000 to 10000 nM | 100 to 1000 nM and 1000 to 10000 nM | 100 to 1000 nM and 10 to 100 nM | – | IC50 (KRAS G13C; read-out: FRET G13C IC50): 148 nM; IC50 (KRAS G13D; read-out: FRET G13D IC50): 219 nM; IC50 (KRAS G12V; read-out: FRET G12V IC50): 329 nM; IC50 (KRAS G12D; read-out: FRET G12D IC50): 154 nM; IC50 (KRAS G12C; read-out: FRET G12C IC50): 68 nM; IC50 (NCI-H358 (K-Ras G12C); NCI-H358, 120 h, 5-day treatment, read-out: H358 Cell Viability IC50): 4290 nM
2 | CCn1c(-c2cccnc2[C@H](C)OC)c2c3cc(ccc31)-c1cc(O)cc(c1)C[C@H](NC(=O)C1CCCC1C(F)F)C(=O)N1CCC[C@H](N1)C(=O)OCC(C)(C)C2 (some centres unmarked) [Example A254] | 100 to 1000 nM | 100 to 1000 nM | 100 to 1000 nM | 100 to 1000 nM | 100 to 1000 nM | 100 to 1000 nM | 1000 to 10000 nM | 100 to 1000 nM | 1000 to 10000 nM | –
3 | CCn1c(-c2cccnc2[C@H](C)OC)c2c3cc(ccc31)-c1csc(n1)C[C@H](NC(=O)[C@H](C(C)C)N(C)C(=O)[C@H]1CCN(C(=O)OC)C1)C(=O)N1CCC[C@H](N1)C(=O)OCC(C)(C)C2 [Example A116] | 1000 to 10000 nM and > 10000 nM | 1000 to 10000 nM and > 10000 nM | 1000 to 10000 nM and > 10000 nM | 1000 to 10000 nM and > 10000 nM | 1000 to 10000 nM and > 10000 nM | 1000 to 10000 nM and > 10000 nM | > 10000 nM | 1000 to 10000 nM and > 10000 nM | 100 to 1000 nM | –
4 | CCn1c(-c2cnccc2COC)c2c3cc(ccc31)-c1cc(O)cc(c1)C[C@H](NC(=O)[C@H](C(C)C)N(C)C(=O)[C@H]1CCN(C(=O)C3COC3)C1)C(=O)N1CCC[C@H](N1)C(=O)OCC(C)(C)C2 [Example A9] | 100 to 1000 nM | 100 to 1000 nM | 100 to 1000 nM | 100 to 1000 nM | 100 to 1000 nM | 100 to 1000 nM | 1000 to 10000 nM | 10 to 100 nM | 1000 to 10000 nM | –
5 | CCn1c(-c2cnccc2COC)c2c3cc(ccc31)-c1cc(O)cc(c1)C[C@H](NC(=O)[C@H](C(C)C)N(C)C(=O)[C@H]1CCNC1)C(=O)N1CCC[C@H](N1)C(=O)OCC(C)(C)C2 [Example A10] | 10 to 100 nM | 10 to 100 nM | 100 to 1000 nM | 10 to 100 nM | 10 to 100 nM | 10 to 100 nM | 100 to 1000 nM | 10 to 100 nM | 1000 to 10000 nM | –
6 | CCn1c(-c2cnccc2COC)c2c3cc(ccc31)-c1cc(O)cc(c1)C[C@H](NC(=O)[C@H](C(C)C)N(C)C(=O)CN1CCOCC1)C(=O)N1CCC[C@H](N1)C(=O)OCC(C)(C)C2 [Example A65] | 100 to 1000 nM | 100 to 1000 nM | 1000 to 10000 nM | 100 to 1000 nM | 100 to 1000 nM | 100 to 1000 nM | 1000 to 10000 nM | 100 to 1000 nM | 1000 to 10000 nM | –
7 | C=CC(=O)N1CC[C@H](C(=O)N(C)[C@H](C(=O)N[C@H]2C[C@H]3CN(CCCO3)c3ccc4c(c3)c(c(-c3cccnc3[C@H](C)OC)n4CC)CC(C)(C)COC(=O)[C@@H]3CCCN(N3)C2=O)C(C)C)C1 (racemic) [Example A405] | – | > 10000 nM | > 10000 nM | > 10000 nM | > 10000 nM | > 10000 nM | > 10000 nM | – | – | IC50 (KRAS G13C; [10]): > 10000 nM; IC50 (KRAS G12C; [11]): 1000 to 10000 nM; IC50 (NCI-H358 (K-Ras G12C); [12]): > 1000 nM
8 | CCn1c(-c2cnccc2COC)c2c3cc(ccc31)-c1cc(O)cc(c1)C[C@H](NC(=O)[C@H](C(C)C)N(C)C(=O)OC1CCOC1)C(=O)N1CCC[C@H](N1)C(=O)OCC(C)(C)C2 (stereo partly drawn) [Example A50, oxolan-3-yl-N-[(1S)-1-{[(8S,14S)-22-ethyl-4-hydroxy-21-[4-(methoxymethyl)pyridin-3-yl]-18,18-dimethyl-9,15-dioxo-16-oxa-10,22,28-triazapentacyclo[18.5.2.1^2,6.1^10,14.0^23,27]nonacosa-1(26),2,4,6(29),20,23(27),24-heptaen-8-yl]carbamoyl}-2-methylpropyl]-N-methylcarbamate] | – | – | – | – | – | – | – | – | 1000 to 10000 nM | IC50 (KRAS G13C; KRAS G13C FRET data, IC50): 1000 to 10000 nM; IC50 (KRAS G13D; KRAS G13D FRET data IC50, KRAS G13D): 1000 to 10000 nM; IC50 (KRAS G12V; KRAS G12V FRET data IC50, KRAS G12V): 1000 to 10000 nM; IC50 (NRAS G12C; NRAS G12C FRET data IC50, NRAS G12C): 1000 to 10000 nM; IC50 (KRAS G12S; KRAS G12S FRET data, IC50): 1000 to 10000 nM; IC50 (KRAS WT; KRAS WT FRET data IC50, KRAS WT): 100 to 1000 nM; IC50 (KRAS G12D; KRAS G12D FRET data, IC50): 1000 to 10000 nM; IC50 (KRAS G12C; KRAS G12C FRET data, IC50): 100 to 1000 nM
9 | C=CC(=O)N1CC[C@H](C(=O)N(C)[C@H](C(=O)N[C@H]2Cc3nc(cs3)-c3ccc4c(c3)c(c(-c3cccnc3[C@H](C)OC)n4CC)CC(C)(C)CN(C)C[C@@H]3CCCN(N3)C2=O)C(C)C)C1 [Example A287] | – | > 10000 nM | > 10000 nM | > 10000 nM | > 10000 nM | > 10000 nM | > 10000 nM | – | – | IC50 (KRAS G13C; [10]): > 10000 nM; IC50 (KRAS G12C; [11]): > 10000 nM; IC50 (NCI-H358 (K-Ras G12C); [12]): > 1000 nM
10 | CCn1c(-c2cccnc2[C@H](C)OC)c2c3cc(ccc31)-c1cccc(c1)C[C@H](NC(=O)[C@H](C(C)C)N(C)C(=O)[C@H]1CCN(C(C)=O)C1)C(=O)N1CCC[C@H](N1)C(=O)OCC(C)(C)C2 [Example A60] | > 10000 nM | > 10000 nM | 1000 to 10000 nM | 1000 to 10000 nM | 1000 to 10000 nM | 1000 to 10000 nM | > 10000 nM | 1000 to 10000 nM | 1000 to 10000 nM | –
